According to patent US20100184751A1, “HETEROCYCLIC COMPOUNDS FOR THE TREATMENT OF TUBERCULOSIS” (priority 2007, published 2010):
Counter-ions that a name gives are not always drawn. Like-named read-outs stand apart in the source and are kept apart here.

Test system: Mycobacterium tuberculosis H37Rv
Assay: Mycobacterium tuberculosis H37Rv inhibition assay (resazurin MIC)
Assay type: cell-based
Conditions: ATCC 25618 / H37Rv, read-out: MIC value
[1] = 144 h, H37Rv strain (ATCC25618), Middlebrook 7H9, 37° C., six days, resazurin fluorescence after 48 hours
[2] = H37Rv strain (ATCC25618), Middlebrook 7H9, 37° C., six days, resazurin fluorescence after 48 hours

Row | Structure (SMILES) | MIC [1] [µg/mL] | MIC [2] [µg/mL] | MIC (144 h) [µg/mL] | MIC [µg/mL]
1 | O=c1ccc2ncc(F)c3c2n1C[C@@]3(O)CN1CCC(NCc2ccc3ccccc3n2)CC1 [Example 51, (4S)-3-fluoro-4-hydroxy-4-({4-[(2-quinolinylmethyl)amino]-1-piperidinyl}methyl)-4,5-dihydro-7H-pyrrolo[3,2,1-de]-1,5-naphthyridin-7-one] | ≤ 4 | – | – | –
2 | N#Cc1cc(CNC2CCN(C[C@]3(O)Cn4c(=O)ccc5ncc(F)c3c54)CC2)cc2c1OCC2 [Example 41, 5-{[(1-{[(4S)-3-fluoro-4-hydroxy-7-oxo-4,5-dihydro-7H-pyrrolo[3,2,1-de]-1,5-naphthyridin-4-yl]methyl}-4-piperidinyl)amino]methyl}-2,3-dihydro-1-benzofuran-7-carbonitrile] | ≤ 4 | ≤ 1.7 | – | –
3 | O=c1ccc2ncc(F)c3c2n1C[C@@]3(O)CN1CCC(NCc2cc3cc(F)cc(F)c3[nH]2)CC1 [Example 54, (4S)-4-[(4-{[(5,7-difluoro-1H-indol-2-yl)methyl]amino}-1-piperidinyl)methyl]-3-fluoro-4-hydroxy-4,5-dihydro-7H-pyrrolo[3,2,1-de]-1,5-naphthyridin-7-one] | ≤ 4 | ≤ 1.7 | – | –
4 | O=c1ccc2ncc(F)c3c2n1C[C@@]3(O)CN1CCC(NCc2ccc3c(c2)OCCO3)CC1 [Example 3A, (4S)-4-({4-[(2,3-Dihydro-1,4-benzodioxin-6-ylmethyl)amino]-1-piperidinyl}methyl)-3-fluoro-4-hydroxy-4,5-dihydro-7H-pyrrolo[3,2,1-de]-1,5-naphthyridin-7-one (E1 Enantiomer Series) Dihydrochloride] | ≤ 4 | ≤ 1.7 | – | –
5 | O=c1ccc2ncc(F)c3c2n1C[C@@]3(O)CN1CCC(NCc2cc3c(cn2)OCCO3)CC1 [Example 1, (4S)-4-({4-[(2,3-Dihydro[1,4]dioxino[2,3-c]pyridin-7-ylmethyl)amino]-1-piperidinyl}methyl)-3-fluoro-4-hydroxy-4,5-dihydro-7H-pyrrolo[3,2,1-de]-1,5-naphthyridin-7-one (E1 Enantiomer Series) Hydrochloride] | ≤ 4 | – | – | –
6 | O=C1COc2ccc(CNC3CCN(CC4(F)Cn5c(=O)ccc6ncc(F)c4c65)CC3)nc2N1 (stereo not drawn) [Example 32, 3,4-Difluoro-4-[(4-{[(3-oxo-3,4-dihydro-2H-pyrido[3,2-b][1,4]oxazin-6-yl)methyl]amino}-1-piperidinyl)methyl]-4,5-dihydro-7H-pyrrolo[3,2,1-de]-1,5-naphthyridin-7-one Dihydrochloride (E1 Enantiomer)] | – | – | ≤ 4 | ≤ 1.7
7 | O=c1ccc2ncc(F)c3c2n1C[C@@]3(O)CN1CCC(NCc2cc3c(cn2)OCS3)CC1 [Example 10B, (4S)-3-Fluoro-4-hydroxy-4-({4-[([1,3]oxathiolo[5,4-c]pyridin-6-ylmethyl)amino]-1-piperidinyl}methyl)-4,5-dihydro-7H-pyrrolo[3,2,1-de]-1,5-naphthyridin-7-one (E1 enantiomer series) hydrochloride] | ≤ 4 | ≤ 1.7 | – | –
8 | O=C1COc2cnc(CNC3CCN(C[C@]4(O)Cn5c(=O)ccc6ncc(F)c4c65)CC3)nc2N1 [Example 70, (4S)-3-fluoro-4-hydroxy-4-[(4-{[(7-oxo-6,7-dihydro-1H-pyrimido[5,4-b][1,4]oxazin-2-yl)methyl]amino}-1-piperidinyl)methyl]-4,5-dihydro-7H-pyrrolo[3,2,1-de]-1,5-naphthyridin-7-one Dihydrochloride] | – | – | ≤ 4 | ≤ 1.7
9 | O=c1ccc2ncc(Cl)c3c2n1CC3(O)CN1CCC(NCc2cc3c(cn2)OCS3)CC1 (racemic) [Example 15, (4R/S)-3-Chloro-4-hydroxy-4-({4-[([1,3]oxathiolo[5,4-c]pyridin-6-ylmethyl)amino]-1-piperidinyl}methyl)-4,5-dihydro-7H-pyrrolo[3,2,1-de]-1,5-naphthyridin-7-one Dihydrochloride] | ≤ 4 | – | – | –
10 | O=c1ccc2ncc(F)c3c2n1C[C@@]3(O)CN1CCC(NCc2ccc3nonc3c2)CC1 [Example 48, (4S)-4-({4-[(2,1,3-benzoxadiazol-5-ylmethyl)amino]-1-piperidinyl}methyl)-3-fluoro-4-hydroxy-4,5-dihydro-7H-pyrrolo[3,2,1-de]-1,5-naphthyridin-7-one] | ≤ 4 | ≤ 1.7 | – | –
11 | O=c1ccc2ncc(F)c3c2n1C[C@@]3(O)CN1CCC(NCc2cnc3snnc3c2)CC1 [Example 56, (4S)-3-fluoro-4-hydroxy-4-({4-[([1,2,3]thiadiazolo[5,4-b]pyridin-6-ylmethyl)amino]-1-piperidinyl}methyl)-4,5-dihydro-7H-pyrrolo[3,2,1-de]-1,5-naphthyridin-7-one] | ≤ 4 | ≤ 1.7 | – | –
12 | O=c1ccc2ncc(F)c3c2n1C[C@@]3(O)CN1CCC(NCc2ccc3scnc3c2)CC1 [Example 42, (4S)-4-({4-[(1,3-benzothiazol-5-ylmethyl)amino]-1-piperidinyl}methyl)-3-fluoro-4-hydroxy-4,5-dihydro-7H-pyrrolo[3,2,1-de]-1,5-naphthyridin-7-one] | ≤ 4 | – | – | –
13 | O=C1CSc2ccc(CNC3CCN(CC4(O)Cn5c(=O)ccc6ncc(Cl)c4c65)CC3)nc2N1 (racemic) [Example 14, (4R/S)-3-Chloro-4-hydroxy-4-[(4-{[(3-oxo-3,4-dihydro-2H-pyrido[3,2-b][1,4]thiazin-6-yl)methyl]amino}-1-piperidinyl)methyl]-4,5-dihydro-7H-pyrrolo[3,2,1-de]-1,5-naphthyridin-7-one Dihydrochloride] | ≤ 4 | – | – | ≤ 1.7
14 | O=c1ccc2ncc(F)c3c2n1C[C@@]3(O)CN1CCC(NCc2cc3c(nn2)SCCO3)CC1 [Example 19, (4S)-4-({4-[(6,7-Dihydro[1,4]oxathiino[3,2-c]pyridazin-3-ylmethyl)amino]-1-piperidinyl}methyl)-3-fluoro-4-hydroxy-4,5-dihydro-7H-pyrrolo[3,2,1-de]-1,5-naphthyridin-7-one (E1 Enantiomer Series) Dihydrochloride] | ≤ 4 | ≤ 1.7 | – | –
15 | O=c1ccc2ncc(F)c3c2n1CC3(F)CN1CCC(NCc2cc3c(nn2)OCCC3)CC1 (stereo not drawn) [Example 33, 4-({4-[(6,7-Dihydro-5H-pyrano[2,3-c]pyridazin-3-ylmethyl)amino]-1-piperidinyl}methyl)-3,4-difluoro-4,5-dihydro-7H-pyrrolo[3,2,1-de]-1,5-naphthyridin-7-one Dihyclrochloride (E1 Enantiomer)] | ≤ 4 | – | – | –
16 | O=c1ccc2ncc(F)c3c2n1C[C@@]3(O)CN1CCC(NCc2ccc3nsnc3c2)CC1 [Example 35, (4S)-4-({4-[(2,1,3-benzothiadiazol-5-ylmethyl)amino]-1-piperidinyl}methyl)-3-fluoro-4-hydroxy-4,5-dihydro-7H-pyrrolo[3,2,1-de]-1,5-naphthyridin-7-one] | ≤ 4 | ≤ 1.7 | – | –
17 | O=c1ccc2ncc(F)c3c2n1C[C@@]3(O)CN1CCC(NCc2cc3c(cn2)OCCS3)CC1 [Example 8A, (4S)-4-({4-[(2,3-Dihydro[1,4]oxathiino[2,3-c]pyridin-7-ylmethyl)amino]-1-piperidinyl}methyl)-3-fluoro-4-hydroxy-4,5-dihydro-7H-pyrrolo[3,2,1-de]-1,5-naphthyridin-7-one (E1 Enantiomer Series) Dihydrochloride] | ≤ 4 | ≤ 1.7 | – | –
18 | O=c1ccc2ncc(F)c3c2n1C[C@@]3(O)CN1CCC(NCc2ccc3cccc(O)c3n2)CC1 [Example 49, (4S)-3-fluoro-4-hydroxy-4-[(4-{[(8-hydroxy-2-quinolinyl)methyl]amino}-1-piperidinyl)methyl]-4,5-dihydro-7H-pyrrolo[3,2,1-de]-1,5-naphthyridin-7-one] | ≤ 4 | – | – | –
19 | O=C1COc2cc(Cl)c(CNC3CCN(C[C@]4(O)Cn5c(=O)ccc6ncc(F)c4c65)CC3)nc2N1 [Example 40, (4S)-4-[(4-{[(7-chloro-3-oxo-3,4-dihydro-2H-pyrido[3,2-b][1,4]oxazin-6-yl)methyl]amino}-1-piperidinyl)methyl]-3-fluoro-4-hydroxy-4,5-dihydro-7H-pyrrolo[3,2,1-de]-1,5-naphthyridin-7-one] | ≤ 4 | ≤ 1.7 | – | –
20 | O=c1ccc2ncc(F)c3c2n1C[C@@]3(O)CN1CCC(NCc2cc3ccccc3cn2)CC1 [Example 36, (4S)-3-fluoro-4-hydroxy-4-({4-[(3-isoquinolinylmethyl)amino]-1-piperidinyl}methyl)-4,5-dihydro-7H-pyrrolo[3,2,1-de]-1,5-naphthyridin-7-one] | ≤ 4 | – | – | –
21 | O=c1ccc2ncc(Cl)c3c2n1CC3(O)CN1CCC(NCc2cc3c(cn2)OCCC3)CC1 (racemic) [Example 13, (4R/S)-3-Chloro-4-({4-[(3,4-dihydro-2H-pyrano[2,3-c]pyridin-6-ylmethyl)amino]-1-piperidinyl}methyl)-4-hydroxy-4,5-dihydro-7H-pyrrolo[3,2,1-de]-1,5-naphthyridin-7-one Dihydrochloride] | ≤ 4 | – | – | –
22 | O=c1ccc2ncc(F)c3c2n1C[C@@]3(O)CN1CCC(NCc2ncc3c(n2)OCCO3)CC1 [Example 69, (4S)-4-({4-[6,7-dihydro[1,4]dioxino[2,3-d]pyrimidin-2-ylmethyl]amino]-1-piperidinyl}methyl)-3-fluoro-4-hydroxy-4,5-dihydro-7H-pyrrolo[3,2,1-de]-1,5-napthyridin-7-one (E1 Enantiomer Series) Dihydrochloride] | ≤ 4 | – | – | –
23 | O=c1ccc2ncc(F)c3c2n1C[C@@]3(O)CN1CCC(NCc2cnc3ccccc3c2)CC1 [Example 37, (4S)-3-fluoro-4-hydroxy-4-({4-[(3-quinolinylmethyl)amino]-1-piperidinyl}methyl)-4,5-dihydro-7H-pyrrolo[3,2,1-de]-1,5-naphthyridin-7-one] | ≤ 4 | ≤ 1.7 | – | –
24 | O=c1ccc2ncc(F)c3c2n1C[C@@]3(O)CN1CCC(NCc2ccc3snnc3c2)CC1 [Example 46, (4S)-4-({4-[(1,2,3-benzothiadiazol-5-ylmethyl)amino]-1-piperidinyl}methyl)-3-fluoro-4-hydroxy-4,5-dihydro-7H-pyrrolo[3,2,1-de]-1,5-naphthyridin-7-one] | ≤ 4 | ≤ 1.7 | – | –
